Results on two compounds are retold here after article PMC5833756, “A novel ruthenium complex with xanthoxylin induces S-phase arrest and causes ERK1/2-mediated apoptosis in HepG2 cells through a p53-independent pathway” (Cell Death & Disease, 2018).

Test [1] deals with HepG2 cell xenografts. Description: Human hepatocellular carcinoma xenograft model. To be noted: 0.3 mg/kg doxorubicin, 10 mg/kg 5-fluorouracil, i.p. once a day for 21 days. Format: in vivo, C.B-17 SCID mice.
Method: Animals were housed in cages with free access to food and water. All animals were kept under a 12:12 h light-dark cycle (lights on at 6:00 a.m.). The local Animal Ethics Committee approved the experimental protocol (number 06/2015).
HepG2 cells (1 × 10^7 cells per 500 µL) were implanted subcutaneously into the left front armpit of the mice. […] The treatments were initiated one day after the tumor cell injection. The animals were treated intraperitoneally (200 µL per animal) once daily for 21 consecutive days. On the 22nd day, the animals were anesthetized, and peripheral blood samples were collected from the brachial artery. Animals were euthanized by anesthetic overdose, and tumors were excised and weighed.
Test [2] has as its system caspase-9. In words: Caspase-9 colorimetric activation assay. To be noted: HepG2, 48 h. Format: cell-based, human. As for the experimental part: (§1) A caspase-3 colorimetric assay kit (Sigma-Aldrich), caspase-8 colorimetric assay kit (BioVision Inc.; Milpitas, CA, USA) and caspase-9 colorimetric assay kit (Invitrogen; Frederick, MD, USA) were used to investigate the activation of caspase-3, -8 and -9 in RCX-treated HepG2, respectively. […] Briefly, cells were lysed by incubation with cell lysis buffer on ice for 10 min and then centrifuged. Enzyme reactions were carried out in a 96-well flat-bottom microplate. To each reaction mixture, 5 μL of cell lysate was added. Absorbance at 405 nm was measured using the SpectraMax 190 Microplate Reader (Molecular Devices). The results are expressed as the specific activity (IU/mg protein) of each caspase.

The subject of test [3] is HepG2 cells. In words: Mitochondrial transmembrane potential (rhodamine 123). The test is classed as cell-based, human. To be noted: HepG2, 24 h. As for the experimental part: Mitochondrial transmembrane potential was determined by the retention of the rhodamine 123 dye[38]. Cells were incubated with rhodamine 123 (5 μg/mL, Sigma-Aldrich Co.) at 37 °C for 15 min in the dark and washed with saline.

In test [4] the test system is HepG2 cells. Description: Annexin V/PI staining assay (flow cytometry). To be noted: HepG2, 12 and 24 µM, 12-72 h.
Method: For apoptosis detection, we used the FITC Annexin V Apoptosis Detection Kit I (BD Biosciences), and the analysis was performed according to the manufacturer’s instructions. Briefly, cells were washed twice with saline and then resuspended in 100 μL of binding buffer with 5 μL of PI and 5 μL of FITC Annexin V. The cells were gently mixed by vortexing and incubated for 15 min at room temperature in the dark. Afterwards, 400 μL of binding buffer was added to each tube, and the cell fluorescence was determined by flow cytometry, as described above. The percent of viable, early apoptotic, late apoptotic and necrotic cells were determined. […] The cells were then trypsinized, and the FITC Annexin V Apoptosis Detection assay was conducted as described above.
Test [5] has as its system caspase-3. Description: Caspase-3 colorimetric activation assay. The test is classed as cell-based, human. To be noted: HepG2, 48 h. As for the experimental part:
as §1

Test [6] deals with HepG2 cells. Description: Intracellular reactive oxygen species levels (DCF-DA). Format: cell-based, human. To be noted: HepG2, 1 or 3 h. The procedure: The production levels of ROS were measured according to a previously described method[39] using DCF-DA (Sigma-Aldrich). […] Then, the cells were collected, washed with saline and resuspended in FACS tubes with saline containing 5 μM DCF-DA for 30 min. […] A protection assay using the antioxidant NAC (Sigma-Aldrich) was also performed. […] The cells were then trypsinized, and the TBE assay was performed.

The subject of test [7] is HepG2 cells. Description: DNA synthesis quantification (methyl-[3H]-thymidine incorporation). The test is classed as cell-based, human. The procedure:
Cellular DNA synthesis was quantified by the incorporation of methyl-[^3H]-thymidine. Methyl-[^3H]-thymidine is a radiolabeled DNA precursor that is incorporated into newly synthesized DNA. Briefly, the complex was added along with 1 µCi of methyl-[^3H]-thymidine (PerkinElmer; Shelton, CT, USA) and incubated for 3 h. After this incubation period, cultures were harvested using a cell harvester (Brandel, Inc., Gaithersburg, MD, USA), and the amount of incorporated^3H-thymidine was determined using a liquid scintillation cocktail Hidex Maxilight (PerkinElmer Life Sciences; Groningen, GE, Netherlands) and a plate CHAMELEON V multilabel Counter (Mustionkatu 2, Turku, Finland). Mitoxantrone (Sigma-Aldrich) was used as the positive control.

The test system of test [8] is p38 MAPK (pT180/pY182). Description: Phosflow analysis. The conditions noted are these: HepG2, 12 µM RCX, 15 min, 30 min, 24 h. The test is classed as cell-based, human. The procedure:
(§2) Phosphorylated ERK 1/2, JNK/SAPK and p38 MAPK were analyzed by flow cytometry. In brief, cells were collected and resuspended in 0.5–1 mL of 4% formaldehyde and fixed for 10 min at 37 °C. Then, the tubes were chilled on ice for 1 min. The cells were permeabilized by slowly adding ice-cold 100% methanol to prechilled cells while gently vortexing to a final concentration of 90% methanol and were incubated for 30 min on ice. After washing with incubation buffer (0.5% bovine serum albumin in PBS), PE mouse anti-ERK1/2 (pT202/pY204), PE mouse anti-JNK/SAPK (pT183/pY185), PE mouse anti-p38 MAPK (pT180/pY182) or PE mouse IgG1, κ isotype control antibodies, all from BD Biosciences, were added and incubated for 1 h at room temperature.

Test [9] relates to ERK1/2 (pT202/pY204). In words: Phosflow analysis. Format: cell-based, human. The conditions noted are these: HepG2, 12 µM RCX, 15 min, 30 min, 24 h. The procedure:
as §2

Test [10] has as its system JNK/SAPK (pT183/pY185). In words: Phosflow analysis. The test is classed as cell-based, human. To be noted: HepG2, 12 µM RCX, 15 min, 30 min, 24 h. The procedure:
as §2

Consider `COc1cccc2c1C(=O)c1c(O)c3c(c(O)c1C2=O)C[C@@](O)(C(=O)CO)C[C@@H]3O[C@H]1C[C@H](N)[C@H](O)[C@H](C)O1` [DOX, doxorubicin], for which the “reduction of tumor weight” value in test [1] turned out to be 27.2%.

With `COc1cc([O-])c(C(C)=O)c(OC)c1.F[P-](F)(F)(F)(F)F.[Ru+2].c1cnc2c(c1)ccc1cccnc12.c1cnc2c(c1)ccc1cccnc12` [RCX, cis-[Ru(phen)2(xant)](PF6)], the caspase-9 activity entry in test [2] is recorded as “caused the activation of all caspases analyzed”. For the same compound, the mitochondrial membrane potential result in test [3] is given as “induced mitochondrial depolarization”. In test [4], the induction of apoptosis entry is “caused apoptosis in a time- and concentration-dependent manner”. The caspase-3 activity result in [5] is “caused the activation of all caspases analyzed”. Moreover, the ROS levels entry in [6] is listed as “did not induce a significant increase in ROS levels”. The “reduction of DNA synthesis” value in test [7] (HepG2, 12 μM) came out at 46.4%; in [7] (HepG2, 24 μM), 65.2%. Besides, the “phosphorylation of p38 MAPK” value in test [8] is “an increase in the phosphorylation of p38 MAPK was not observed at any time point investigated”. Moreover, in test [9], the “phosphorylation of ERK1/2” value is “induced the phosphorylation of ERK1/2 after 15- and 30-min incubations”. The “phosphorylation of JNK/SAPK” value in test [10] was “the phosphorylation of JNK/SAPK after a 15-min incubation”.
